pIC50: −log10 of the molar value.
target: ERBB2;PIK3CA (human) (UniProt P42336); test: Inhibition of ERBB2 and PIK3CA Kinase Activity in MDA361 Cells; conditions: mda-361
Sequence (P42336 whole entry, looked up): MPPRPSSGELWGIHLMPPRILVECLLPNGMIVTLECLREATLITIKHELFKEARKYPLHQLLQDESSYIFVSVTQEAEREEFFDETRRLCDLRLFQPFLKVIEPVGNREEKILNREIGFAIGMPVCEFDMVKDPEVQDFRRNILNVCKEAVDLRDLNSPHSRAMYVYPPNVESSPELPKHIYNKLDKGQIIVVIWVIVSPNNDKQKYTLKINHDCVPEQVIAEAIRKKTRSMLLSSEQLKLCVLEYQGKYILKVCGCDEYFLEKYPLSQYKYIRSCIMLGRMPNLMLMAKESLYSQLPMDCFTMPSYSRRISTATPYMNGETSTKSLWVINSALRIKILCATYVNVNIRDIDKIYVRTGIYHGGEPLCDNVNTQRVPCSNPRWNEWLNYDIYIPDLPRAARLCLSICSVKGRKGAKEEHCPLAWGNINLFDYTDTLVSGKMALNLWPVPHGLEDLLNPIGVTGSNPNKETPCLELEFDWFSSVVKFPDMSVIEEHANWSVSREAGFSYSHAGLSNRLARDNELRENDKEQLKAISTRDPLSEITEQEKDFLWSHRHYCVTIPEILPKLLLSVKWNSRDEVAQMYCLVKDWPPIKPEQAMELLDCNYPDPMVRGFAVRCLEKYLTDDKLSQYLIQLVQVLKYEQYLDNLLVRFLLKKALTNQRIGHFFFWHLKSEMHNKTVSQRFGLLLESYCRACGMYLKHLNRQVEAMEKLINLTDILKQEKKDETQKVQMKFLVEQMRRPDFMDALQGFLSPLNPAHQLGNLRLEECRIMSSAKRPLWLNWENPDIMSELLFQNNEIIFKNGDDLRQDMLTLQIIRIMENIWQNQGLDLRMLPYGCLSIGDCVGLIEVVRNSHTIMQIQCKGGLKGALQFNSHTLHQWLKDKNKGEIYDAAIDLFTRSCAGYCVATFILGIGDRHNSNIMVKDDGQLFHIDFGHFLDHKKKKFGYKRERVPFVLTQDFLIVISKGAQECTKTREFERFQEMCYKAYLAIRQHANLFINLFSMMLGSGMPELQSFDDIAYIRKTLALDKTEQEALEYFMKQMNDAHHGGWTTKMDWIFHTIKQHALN

How did the pIC50 turn out when CN(C)CCN(C)C(=O)c1ccc(NC(=O)Nc2ccc(-c3nc(N4CCOCC4)c4ccn(CC(F)(F)F)c4n3)cc2)cc1 was run?
The pIC50 was > 8.52.

target: PIK3CA (human) (UniProt P42336); test: Inhibition of PIK3CA Kinase Activity (Fluorescence Polarization Format Assay); conditions: not given
Sequence (P42336 whole entry, looked up): as above

O=C(Nc1ccncc1)Nc1ccc(-c2nc(N3CCOCC3)c3ccn(CCN4CCCC4)c3n2)cc1 was tested. Which pIC50 did it give?
The pIC50 was 7.52.

CN(C)CCn1ccc2c(N3CCOCC3)nc(-c3cccc(O)c3)nc21 was tested. Which pIC50 did it give?
Its pIC50 is 7.12.

How did the pIC50 turn out when CCNC(=O)Nc1ccc(-c2nc(N3CCOCC3)c3ccn(CCN(C)C)c3n2)cc1 was run?
Its pIC50 is 6.65.

Oc1cccc(-c2nc(N3CCOCC3)c3cc[nH]c3n2)c1 was tested. Which pIC50 did it give?
The pIC50 was 7.37.

How did the pIC50 turn out when Cc1cccc(-c2nc(N3CCOCC3)c3[nH]ccc3n2)c1 was run?
The pIC50 was 5.82.

From the Kinase Knowledgebase extract (Sharma et al. 2016)
